Data published in PubChem BioAssay (NCI).
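The compound was tested at five concentrations on cells cultured in 96-well plates, with a 48-hour exposure period. TGI is the concentration that stops growth completely.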

Key:
Assay in all cases: NCI tumour cell line growth inhibition, 48 h
[1] = test system: SNB-19 CNS
[2] = test system: NCI/ADR-RES ovarian
[3] = test system: COLO 205 colon
[4] = test system: RXF 393 renal
[5] = test system: BT-549 breast
[6] = test system: SK-MEL-28 melanoma
[7] = test system: HS 578T breast
[8] = test system: OVCAR-5 ovarian
[9] = test system: SK-MEL-5 melanoma
[10] = test system: HCC-2998 colon
[11] = test system: 786-0 renal
[12] = test system: UACC-257 melanoma
[13] = test system: NCI-H23 lung
[14] = test system: SN12C renal
[15] = test system: MDA-N
[16] = test system: TK-10 renal
[17] = test system: MALME-3M melanoma
[18] = test system: RPMI-8226 leukemia
[19] = test system: OVCAR-8 ovarian
[20] = test system: NCI-H226 lung
[21] = test system: K-562 leukemia
[22] = test system: HT29 colon
[23] = test system: HCT-15 colon
[24] = test system: SF-295 CNS
[25] = test system: SNB-75 CNS
[26] = test system: U251 CNS
[27] = test system: NCI-H522 lung
[28] = test system: MCF7 breast
[29] = test system: HL-60(TB) leukemia
[30] = test system: A498 renal
[31] = test system: DU-145 prostate
[32] = test system: MOLT-4 leukemia
[33] = test system: NCI-H460 lung
[34] = test system: OVCAR-3 ovarian
[35] = test system: SF-268 CNS
[36] = test system: SK-MEL-2 melanoma
[37] = test system: UO-31 renal
[38] = test system: T-47D breast
[39] = test system: M14 melanoma
[40] = test system: OVCAR-4 ovarian
[41] = test system: UACC-62 melanoma
[42] = test system: SK-OV-3 ovarian
[43] = test system: ACHN renal
[44] = test system: HOP-62 NSCLC
[45] = test system: MDA-MB-231 breast
[46] = test system: CAKI-1 renal
[47] = test system: KM12 colon
[48] = test system: HCT-116 colon
[49] = test system: LOX IMVI melanoma
[50] = test system: SW-620 colon
[51] = test system: HOP-92 NSCLC
[52] = test system: MDA-MB-435
[53] = test system: EKVX NSCLC
[54] = test system: A549 NSCLC
[55] = test system: IGROV1 ovarian
[56] = test system: PC-3 prostate
[57] = test system: CCRF-CEM leukemia
[58] = test system: SF-539 CNS

OCCNc1ncnc2nc[nH]c12
TGI [1]: > 100 µM | TGI [2]: > 100 µM | TGI [3]: > 100 µM | TGI [4]: > 100 µM | TGI [5]: > 100 µM | TGI [6]: > 100 µM | TGI [7]: > 100 µM | TGI [8]: > 100 µM | TGI [9]: > 100 µM | TGI [10]: > 100 µM | TGI [11]: > 100 µM | TGI [12]: > 100 µM | TGI [13]: > 100 µM | TGI [14]: > 100 µM | TGI [15]: > 100 µM | TGI [16]: > 100 µM | TGI [17]: > 100 µM | TGI [18]: > 100 µM | TGI [19]: > 100 µM | TGI [20]: > 100 µM | TGI [21]: > 100 µM | TGI [22]: > 100 µM | TGI [23]: > 100 µM | TGI [24]: > 100 µM | TGI [25]: > 100 µM | TGI [26]: > 100 µM | TGI [27]: > 100 µM | TGI [28]: > 100 µM | TGI [29]: > 100 µM | TGI [30]: > 100 µM | TGI [31]: > 100 µM | TGI [32]: > 100 µM | TGI [33]: > 100 µM | TGI [34]: > 100 µM | TGI [35]: > 100 µM | TGI [36]: > 100 µM | TGI [37]: > 100 µM | TGI [38]: > 100 µM | TGI [39]: > 100 µM | TGI [40]: > 100 µM | TGI [41]: > 100 µM | TGI [42]: > 100 µM | TGI [43]: > 100 µM | TGI [44]: > 100 µM | TGI [45]: > 100 µM | TGI [46]: > 100 µM | TGI [47]: > 100 µM | TGI [48]: > 100 µM | TGI [49]: > 100 µM | TGI [50]: > 100 µM | TGI [51]: > 100 µM | TGI [52]: > 100 µM | TGI [53]: > 100 µM | TGI [54]: > 100 µM | TGI [55]: > 100 µM | TGI [56]: > 100 µM

C[C@]12CC(c3ccccc3O1)C(C(N)=O)C(=O)N2 (some centres not stated)
TGI [1]: > 100 µM | TGI [2]: > 100 µM | TGI [3]: > 100 µM | TGI [4]: > 100 µM | TGI [5]: > 100 µM | TGI [6]: > 100 µM | TGI [7]: > 100 µM | TGI [8]: > 100 µM | TGI [9]: > 100 µM | TGI [10]: > 100 µM | TGI [11]: > 100 µM | TGI [12]: > 100 µM | TGI [13]: > 100 µM | TGI [14]: > 100 µM | TGI [15]: > 100 µM | TGI [17]: > 100 µM | TGI [18]: > 100 µM | TGI [19]: > 100 µM | TGI [20]: > 100 µM | TGI [21]: > 100 µM | TGI [22]: > 100 µM | TGI [23]: > 100 µM | TGI [25]: > 100 µM | TGI [26]: > 100 µM | TGI [27]: > 100 µM | TGI [28]: > 100 µM | TGI [29]: > 100 µM | TGI [30]: > 100 µM | TGI [31]: > 100 µM | TGI [32]: > 100 µM | TGI [33]: > 100 µM | TGI [34]: > 100 µM | TGI [35]: > 100 µM | TGI [36]: > 100 µM | TGI [38]: > 100 µM | TGI [39]: > 100 µM | TGI [40]: > 100 µM | TGI [41]: > 100 µM | TGI [57]: > 100 µM | TGI [42]: > 100 µM | TGI [43]: > 100 µM | TGI [44]: > 100 µM | TGI [45]: > 100 µM | TGI [46]: > 100 µM | TGI [47]: > 100 µM | TGI [48]: > 100 µM | TGI [49]: > 100 µM | TGI [50]: > 100 µM | TGI [51]: > 100 µM | TGI [52]: > 100 µM | TGI [53]: > 100 µM | TGI [54]: > 100 µM | TGI [55]: > 100 µM | TGI [56]: > 100 µM

Cc1ccc(C[N+](C)(C)N)cc1C
TGI [1]: > 10 µM | TGI [2]: > 10 µM | TGI [3]: > 10 µM | TGI [4]: > 10 µM | TGI [5]: > 10 µM | TGI [6]: > 10 µM | TGI [7]: > 10 µM | TGI [8]: > 10 µM | TGI [9]: > 10 µM | TGI [10]: > 10 µM | TGI [11]: > 10 µM | TGI [12]: > 10 µM | TGI [13]: > 10 µM | TGI [14]: > 10 µM | TGI [15]: > 10 µM | TGI [58]: > 10 µM | TGI [16]: > 10 µM | TGI [17]: > 10 µM | TGI [18]: > 10 µM | TGI [19]: > 10 µM | TGI [20]: > 10 µM | TGI [21]: > 10 µM | TGI [22]: > 10 µM | TGI [23]: > 10 µM | TGI [24]: > 10 µM | TGI [25]: > 10 µM | TGI [26]: > 10 µM | TGI [27]: > 10 µM | TGI [28]: > 10 µM | TGI [29]: > 10 µM | TGI [30]: > 10 µM | TGI [31]: > 10 µM | TGI [32]: > 10 µM | TGI [33]: > 10 µM | TGI [34]: > 10 µM | TGI [35]: > 10 µM | TGI [37]: > 10 µM | TGI [38]: > 10 µM | TGI [39]: > 10 µM | TGI [40]: > 10 µM | TGI [41]: > 10 µM | TGI [57]: > 10 µM | TGI [42]: > 10 µM | TGI [43]: > 10 µM | TGI [44]: > 10 µM | TGI [45]: > 10 µM | TGI [46]: > 10 µM | TGI [47]: > 10 µM | TGI [48]: > 10 µM | TGI [49]: > 10 µM | TGI [50]: > 10 µM | TGI [51]: > 10 µM | TGI [52]: > 10 µM | TGI [53]: > 10 µM | TGI [54]: > 10 µM | TGI [55]: > 10 µM | TGI [56]: > 10 µM
